Assay results as given in US20030229072A1, “Cyclic and acyclic amidines and pharmaceutical compositions containing them for use as progesterone receptor binning agents” (priority 2000, published 2003).

With `Cc1cc([N+](=O)[O-])ccc1/N=C1/C2CC3CC(C2)CC(C3)N1CC(C)C` [Example 54, N-(4-Isobutyl-4-azatricyclo[4.3.1.1^3,8]undec-5-ylidene)-2-methyl-4-nitroaniline] the melting point was 101 to 102 °C.
